Data on 1 compound can be found in PMC4926359, “Cloning, Expression and 3D Structure Prediction of Chitinase from Chitinolyticbacter meiyuanensis SYBC-H1” (International Journal of Molecular Sciences, 2016).

In the test the test system is CHI2 chitinase. The experiment in a line: p-nitrophenol release at […] nm, Lineweaver-Burk. Format: biochemical, Chitinolyticbacter meiyuanensis. Conditions: 50 mM sodium phosphate pH 7.0, 37 °C; substrate range 50-250 μM; unit contradictory in the paper: mM in b32 and b39, µmol/L in abstract b1.

For `CC(=O)N[C@H]1[C@H](Oc2ccc([N+](=O)[O-])cc2)O[C@H](CO)[C@@H](O)[C@@H]1O` [p-NP-GlcNAc], the Km came out at 23 mM.

In general, Km refers to the substrate concentration at which the rate is half of its maximum.
